The source of these data is patent US11027022B2, “Conjugates and conjugating reagents” (priority 2016, dated 2021).

The test deals with Karpas-299 cells (T-anaplastic large cell lymphoma, ALCL). Nature of the test: Karpas-299 mouse xenograft study. In kind it is in vivo, CB17-SCID mice. The following applies: single i.v. injection, 1 mg/kg, groups of eight mice. The method, then:
Healthy female CB17-SCID mice (CBySmn.CB17-Prkdcscida, Charles River Laboratories) with an average body weight of 17.5 g were used for cell inoculation (Day 0). 24 to 72 h prior to tumour cell injection, the mice were […] (1.44 Gy, ^60Co). The animals were maintained in SPF health status according to the FELASA guidelines in housing rooms under controlled environmental conditions.
Tumours were induced by subcutaneous injection of 10^7 Karpas-299 cells (T-anaplastic large cell lymphoma, ALCL) in 200 μL of RPMI 1640 into the right flank. Tumours were measured twice a week with callipers, and the volume was estimated using the formula: […]
Fourteen days after tumour implantation (Day 14), the animals were randomised into groups of eight mice using Vivo Manager® software (233 mm^3 mean tumour volume) and treatment was initiated. The animals from the vehicle group received a single intravenous (i.v.) injection of PBS. The treated groups were dosed with a single i.v. injection of ADC at either 0.5 mg/kg or 1 mg/kg.
Treatment tolerability was assessed by bi-weekly body weight measurement and daily observation for clinical signs of treatment-related side effects. Mice were euthanized when a humane endpoint was reached (e.g. 1,600 mm^3 tumour volume) or after a maximum of 6 weeks post-dosing.

For “Adcetris®: commercially-available Adcetris® conjugate, comparative to the brentuximab-drug conjugates [reference compound]”, the “complete responses (total reduction of tumour volume to zero)” value worked out at 2 animals and the “mean tumour volume (result in words)” value was “increase in mean tumour volume”.
